Experimental data as given in patent US8618178B2, “Method and substances for treating T-cell mediated autoimmune diseases” (Eberhard-Karls-Universitaet Tuebingen Universitaetsklinikum, priority 2006, dated 2013).
“Also recorded” adds a separate entry of the source. Counter-ions that a name gives are not always drawn.

Tests used:
BMDC = assay: Measurement of reactive oxygen species (ROS) in DC with dichlorofluorescein, flow cytometry; type: cell-based, mouse; conditions: dichlorofluorescein, flow cytometry
Description: For the measurement of reactive oxygen species (ROS) in DC and APC, the fluorescent dye 2′,7′ dichlorofluorescein (H2 DCFDA, Molecular Probes, Eugene, USA) was used. 5×10^5 DC were preincubated in 1 ml of RPMI medium (without mercaptoethanol) for 60 mins at 37° C. in the incubator with 1% DMSO or 10 μg/ml DMF+/−NAC (1 mM) or GSX (1 mM). After this preincubation, 1 μM/ml H2 DCFDA was added and the cells incubated for a further 30 mins at 37° C. Within one hour, the fluorescence produced was detected using flow cytometry (FL1).
(§1) As antigen presenting cells (APC), T cell depleted spleen cells from syngenic mice were used. Dendritic cells (DC) which were obtained from bone marrow (BMDC) and cultured with GM-CSF were used for the relevant experiments on day 7 of culturing. For the experiment, in each case an equal number of APC were cultured either with the medium alone, with L-BSO (C8H18N2O3S, 0.5 mM), dimethyl sulfoxide DMSO(C2H6OS), dimethyl fumarate DMF (C6H8O4, dissolved in DMSO, 70 μM), or calcium monomethyl fumarate (MMF; CaC10H10O8, 200 μM). All substances except for MMF (Fumapharm) were purchased from Sigma-Aldrich. At the respective stated times (see below) the cells were either analyzed directly for their GSH content, used for T cell stimulation or stimulated for IL-2 production with Escherichia coli lipopolysaccharides 055.B5 (Sigma-Aldrich) or CpG-DNA 1668 (MWG Biotech) and IL-4 (Stratmann). In order to raise the GSH level again, 1 mM GSH-OEt (C12H21N3O6S; Sigma-Aldrich) or 1 mM NAC (Sigma-Aldrich) was added.
For testing the potential of pharmaceutical substances to induce the ROS, the following procedure was developed: for the measurement of reactive oxygen species (ROS) in cells, the fluorescent dye 2′,7′ dichlorofluorescein (H2 DCFDA) is used. The absorption spectrum of the substance is 492-495 nm and the emission spectrum lies in the range between 517-527 nm. On induction of cell stress, e.g., by the administration of ROS-causing reagents, oxidation of the H2 DCFDA to DCFDA+H2 occurs. The fluorescence arising as a result can be detected using flow cytometry (FL1).

IL-12 = IL-12 production by DC, ELISA of culture supernatants; type: cell-based, mouse; conditions: after stimulation with LPS
Description: IL-4, IL-10, IL-12 and interferon-γ were determined using the ELISA (enzyme linked immunosorbent assay) set or with the use of individual components from BD BioSciences. IL-23 in the supernatant was determined using the ELISA set (eBioscience). For intracytoplasmic cytokine analyses, the T cells were restimulated with PMA/ionomycin or with APC and peptide in the presence of brefeldin A, then fixed and permeabilized and stained. For the surface staining, anti-CD4 or KJ1-26 antibodies were used; the cytokine antibodies (PE labeled) were all obtained from BD Pharmingen.
as §1, with “used for T cell stimulation or stimulated for IL-2 production with Escherichia coli lipopolysaccharides” left out

[1] = tested on: experimental autoimmune encephalomyelitis (EAE); assay: EAE after transfer of in vitro generated PLP-specific T cells into naive SJL mice; type: in vivo; conditions: 10^7 lymphocytes injected into naive SJL mice
Description: Spleen and lymph node CD4^+ T cells were stimulated with PLP (proteolipid protein) peptide 139-151 (10 μg/ml) and stimulated for four days with irradiated SJL-APC in the presence or absence of L-BSO (0.5 mM, Sigma), expanded for three to four days and then restimulated for cytokine production (proteolipid protein is the commonest myelin protein in the central nervous system and plays an important part as an autoantigen in the onset of multiple sclerosis). Next, 10^7 sham (control) or L-BSO treated T cells were injected intraperitoneally into naive SJL mice and the EAE developing as a result was observed. […] Half of the group was fed daily for 14 days with DMF 0.3 mg/ml (Fluka) or L-BSO 0.15 mg/ml in the drinking water. For the cytokine analysis of PLP-specific T cells, the draining lymph nodes of the SJL mice were removed 6 days after the immunization and CD4^+ T cells antigen-specifically analyzed (ELISPOT). For this, ELISPOT plates (Millipore Corporation) were coated with anti-IFN-γ or anti-IL-4 antibodies overnight at 4° C., blocked after 12 hrs with PBS/10% FCS and, after the solution had been poured off, the isolated T lymphocytes were incubated with APC and medium alone or in the presence of PLP peptide. After the incubation time, the cells were poured off, and the plates washed with PBS/Tween and incubated with biotin-conjugated secondary antibodies. After further washing procedures and incubation with streptavidin-alkaline phosphatase (Boehringer), the plates were incubated with developer solution. After washing with H2O, the number of spots was determined in the ELISPOT reader (Biosys).
Since the induction of the TH2 phenotype could adversely affect the ability of the CD4^+ T cells to induce autoimmune diseases in immunocompetent mice, it was concluded that GSH^lowIL12^−DC2 could weaken the ability of autoreactive CD4^+ T cells to induce the disease. For the next experiments, lymphocytes from SJL mice were stimulated twice with PLP peptide, either in the presence or absence of L-BSO, DMF or MMF. […]

COC(=O)/C=C/C(=O)OC [DMF, dimethyl fumarate]
intracellular ROS in DC (BMDC): rise in ROS
IL-12 production by DC (IL-12): strong suppression of IL-12 production; also recorded: markedly less; also recorded: markedly decreased capacity to produce IL-12
ability of T cells generated in the presence of the substance to induce EAE [1]: not able to trigger severe encephalomyelitis

CCCCS(=N)(=O)CCC(N)C(=O)O [L-BSO, L-buthionine sulfoximine]
intracellular ROS in DC (BMDC): rise in intracellular ROS
IL-12 production by DC (IL-12): strong suppression of IL-12 production; also recorded: markedly decreased capacity to produce IL-12
ability of T cells generated in the presence of the substance to induce EAE [1]: scarcely still capable of inducing EAE in vivo

COC(=O)/C=C/C(=O)[O-].[Ca+] [MMF, calcium monomethyl fumarate]
intracellular ROS in DC (BMDC): induces ROS
IL-12 production by DC (IL-12): strong suppression of IL-12 production; also recorded: markedly decreased capacity to produce IL-12
ability of T cells generated in the presence of the substance to induce EAE [1]: not able to trigger severe encephalomyelitis
